Measured values from patent US11504310B2, “Aqueous microemulsion” (Firmenich SA, priority 2017, dated 2022).

Columns and labels:
[1] = logP of fragrance raw materials and fragrances
[2] = single raw materials of fragrances F1-F4 (Tables 1-4)

| Molecule | logP [1] | other results |
| --- | --- | --- |
| 1-OXA-12/13-CYCLOHEXADECEN-2-ONE [HABANOLIDE ®] | – | logP [1, 2]: 4.88 |
| 2/3-METHYLBUTYL ACETATE [AMYL ACETATE] | – | logP [1, 2]: 2.26 |
| CCCC(C)C(=O)OCC (racemic) [(+ −)-ETHYL 2-METHYLPENTANOATE] | 2.76 | – |
| CCCCCCC1CCC(=O)O1 (racemic) [DECALACTONE CP, (+ −)-4-DECANOLIDE] | 2.72 | – |
| C=CC(C)CCCC(C)(C)O (racemic) [DIHYDROMYRCENOL PURE, (+ −)-2,6-DIMETHYL-7-OCTEN-2-OL] | 3.47 | – |
| CCC1CCC(=O)O1 (racemic) [GAMMA HEXALACTONE, (+ −)-4-HEXANOLIDE] | – | logP (physchem): 0.6 |
| CC(=O)/C(C)=C/C1C(C)=CCCC1(C)C (racemic) [ISORALDEINE 70 P, (+ −)-(3E)-3-methyl-4-(2,6,6-trimethyl-2-cyclohexen-1-yl)-3-buten-2-one] | 4.84 | – |
| CC1/C=C/CCCCCCCCCCC(=O)C1 (racemic) [MUSCENONE DELTA, (+ −)-(4E)-3-METHYL-4-CYCLOPENTADECEN-1-ONE] | 5.75 | – |
| CCCCCC1(C)CCC(C)(C)C1=O (racemic) [VELOUTONE, (+ −)-2,2,5-trimethyl-5-pentylcyclopentanone] | 4.34 | – |
| Cc1ccc2c(c1)OCC(=O)CO2 [CALONE ®, 7-methyl-2H-1,5-benzodioxepin-3(4H)-one] | 2.43 | – |
| CC(C)(O)CCC1CCCCC1 [CORANOL, 4-CYCLOHEXYL-2-METHYL-2-BUTANOL] | 3.98 | – |
| CCOc1cc(C=O)ccc1O [ETHYL VANILLIN, 3-ethoxy-4-hydroxybenzaldehyde] | – | logP (physchem): 1.58 |
| O=C1CCCCCCCCCCCCCCO1 [EXALTOLIDE ®, oxacyclohexadecan-2-one] | 6.15 | – |
| CCOC(=O)CC1(C)OCCO1 [FRUCTONE ®, ETHYL 2-METHYL-1,3-DIOXOLANE-2-ACETATE] | 1.3 | – |
| CC(C)=CCCC(C)=CCO [GERANIOL LJ] | 3.47 | – |
| CCC(=O)OCC(C)(C)O[C@@H](C)[C@@H]1CCCC(C)(C)C1 [HELVETOLIDE ®, (+)-(1S,1′R)-2[1-(3′,3′-DIMETHYL-1′-CYCLOHEXYL)ETHOXY]-2-METHYLPROPYL PROPANOATE] | – | logP [1, 2]: 5.51 |
| CC1=CC(C)C(C=O)C(C)C1 (centres unmarked) [ISOCYCLOCITRAL] | – | logP [1, 2]: 3.27 |
| COC(=O)/C=C/c1ccccc1 [METHYL CINNAMATE, METHYL (E)-3-PHENYL-2-PROPENOATE] | 2.62 | – |
| COC(=O)c1c(C)cc(O)c(C)c1O [MOUSSE CRISTAL, METHYL 2,4-DIHYDROXY-3,6-DIMETHYLBENZOATE] | 3.22 | – |
| OCCCc1ccccc1 [PHENYLPROPYL ALCOHOL, 3-PHENYL-1-PROPANOL] | – | logP [1, 2]: 1.88 |
| CC(C)=CC1CC(C)CCO1 (centres unmarked) [ROSE OXIDE, TETRAHYDRO-4-METHYL-2-(2-METHYL-1-PROPENYL)-2H-PYRAN] | 3.58 | – |
| CCC(=O)OC1CC2CC1C1CC=CC21 (centres unmarked) [VERDYL PROPIONATE, TRICYCLO[5.2.1.0(2,6)]DEC-3-EN-8-YL PROPANOATE] | 3.34 | – |
| ALLYL (2/3-METHYLBUTOXY)ACETATE [ALLYL AMYL GLYCOLATE] | – | logP [1, 2]: 2.34 |
